Measured values taken from patent US8440711B2, “2-aryl-2-fluoropropanoic acids and derivatives and pharmaceutical compositions containing them” (Dompe Pha.r.ma S.p.A., priority 2006, dated 2013).
Structures can show the parent of a compound that is named as a salt. Where two headings read alike, the source gives them in different places. Each block holds one compound with its values, some of them ahead of it.

Columns and labels:
[1] = tested on: GRO-α induced chemotaxis of polymorphonucleate leukocytes (PMNs); experiment: GRO-α induced chemotaxis of human PMNs; format: cell-based; details: Leukocyte; for inhibition at 0.01 µM: 10^−8 M
Procedure: (§1) The compounds of the invention of formula (I) were evaluated in vitro for their ability to inhibit chemotaxis of polymorphonucleate leukocytes (hereinafter referred to as PMNs) and monocytes induced by the fractions of CXCL8 and GRO-α and C5a and compared to the corresponding non fluorinated parent compounds. For this purpose, in order to isolate the PMNs from heparinized human blood, taken from healthy adult volunteers, mononucleates were removed by means of sedimentation on dextran (according to the procedure disclosed by W. J. Ming et al., J. Immunol., 138, 1469, 1987) and red blood cells by a hypotonic solution. The cell vitality was calculated by exclusion with Trypan blue, whilst the ratio of the circulating polymorphonucleates was estimated on the cytocentrifugate after staining with Diff Quick.
GRO-α induced chemotaxis inhibition was evaluated in an analogous assay.
(§2) In the chemotaxis experiments, the PMNs were incubated with the compounds of the invention of formula (I) for 15′ at 37° C. in an atmosphere containing 5% CO2.
(§3) During the chemotaxis assay (W. Falket et al., J. Immunol. Methods, 33, 239, 1980) PVP-free filters with a porosity of 5 μm and microchambers suitable for replication were used.
(§4) The compounds of the invention in formula (I) were evaluated at a concentration ranging between 10^−6 and 10^−10 M; for this purpose they were added, at the same concentration, both to the lower pores and the upper pores of the microchamber. Evaluation of the ability of the compounds of the invention of formula (I) to inhibit the chemotaxis of human monocytes was carried out according to the method disclosed (Van Damme J. et al., Eur. J. Immunol., 19, 2367, 1989).

[2] = Pharmacokinetic profile after intravenous and oral administration; format: in vivo; details: male, rat, plasma; for bioavailability: po; for half-life: read-out: t½ (converted)
Procedure: The pharmacokinetic profile of the compounds of formula (I) was evaluated in male mice or rats after intravenous and oral administration. The pharmacokinetic analysis was performed using plasmatic concentrations of the compounds at different times. The data were evaluated by Kinetica 2000™, Version 3.0 Software [InnaPhase Corporation, World headquarters, 1700 Race Street, Philadelphia, Pa. 19103 USA]. The pharmacokinetic parameters were calculated according the following formulas: Kel=elimination rate constant; t1/2=In2/Kel, AUC=AUC0n+AUCextra, where AUC0n=AUC from t=0 to t last (Trapezoidal Method) and AUCextra=extrapolated AUC=Clast/Kel; Clearance=D/AUC; Vd=Cl/Kel; Oral bioavailability F=(AUCp.o./AUCi.v.)*(Di.v./Dp.o.)*100.

[3] = Protein binding in rat plasma (ultrafiltration); format: in vitro ADME; details: 37° C.
Procedure: (§5) Protein Binding was determined as follows: Duplicate rat plasma samples of each compound at 50 μg/mL concentration were incubated at 37° C. for 20 minutes under gentle shaking. Then samples were ultrafiltrated through Centrifree® micropartition devices by centrifugation at 1500 g for 15 minutes. The ultrafiltrate was subjected to HPLC-MS/MS quantitative analysis (Column Luna C18, 150×2 mm ID 5 μm (Phenomenex), mobile phase: eluent A) 0.02M HCOO—NH4+ (pH 4.3 with HCOOH); eluent B) CH3OH).

[4] = tested on: C5a induced chemotaxis of polymorphonucleate leukocytes (PMNs); experiment: C5a induced chemotaxis of human PMNs; format: cell-based; details: Leukocyte, 10^−8 M, Table 2
Procedure: as §1
In the C5a induced chemotaxis assay the fractions hr-C5a and hrC5a-desArg (Sigma) were used as stimulating agents in chemotaxis experiments, obtaining practically identical results. Lyophilized C5a was dissolved in a volume of HBSS containing 0.2% BSA so as to obtain a stock solution having a concentration of 10^−5 M, to be diluted in HBSS to a concentration of 10^−9 M, for the chemotaxis assays.
as §2
The chemotactic activity of the C5a was evaluated on human circulating polymorphonucleates (PMNs) resuspended in HBSS at a concentration of 1.5×10^6 PMNs per nil.
as §3, §4

[5] = tested on: CXCL8 induced chemotaxis of polymorphonucleate leukocytes (PMNs); experiment: CXCL8 induced chemotaxis of human PMNs; format: cell-based; details: Leukocyte; for inhibition at 0.001 µM: 10^−9 M
Procedure: as §1
In the CXCL8 induced chemotaxis assay human recombinant CXCL8 (Pepro Tech) was used as stimulating agents in the chemotaxis experiments: the lyophilized protein was dissolved in a volume of HBSS containing 0.2% bovin serum albumin (BSA) so thus to obtain a stock solution having a concentration of 10^−5 M to be diluted in HBSS to a concentration of 10^−9 M, for the chemotaxis assays.
as §2, §3, §4

[6] = Protein binding, experiments performed in mouse; format: in vitro ADME; details: plasma; values marked *: experiments performed in mouse
Procedure: as §5

[7] = values marked *: 10^−7 M, Table 1, read-out: GRO-α (% of inhibition at 10^−7 M)
[8] = Table 1, read-out: CXCL8 (% inhibition at 10^−9 M)

SMILES: CC(F)(C(=O)O)c1ccc(OS(=O)(=O)C(F)(F)F)cc1 (centres unmarked) [Compound 1, 2-Fluoro-2-(4-{[(trifluoromethyl)sulfonyl]oxy}phenyl) propanoic acid]
- inhibition at 0.1 µM [1, 7]: 47 ± 10%

SMILES: C[C@](F)(C(=O)NS(C)(=O)=O)c1ccc(OS(=O)(=O)C(F)(F)F)cc1 [Compound 17, 4-{(1R)-1-fluoro-1-methyl-2-[(methylsulfonyl)amino]-2-oxoethyl}phenyl trifluoromethanesulfonate]
- inhibition at 0.01 µM ([1]; Table 1): 57 ± 14%

SMILES: C[C@@](F)(C(=O)NO)c1ccc(OS(=O)(=O)C(F)(F)F)cc1 [Compound 4, 4-[(1S)-1-fluoro-2-(hydroxyamino)-1-methyl-2-oxoethyl}phenyl trifluoromethanesulfonate]
- inhibition at 0.01 µM ([1]; Table 1): 55 ± 10%

- Vd [2]: 1.33 L/kg
- clearance [2]: 0.65 mL/min/kg
- bioavailability [2]: 85%
- half-life [2]: 25 h
- fraction unbound at 20 min, 50 μg/mL [3]: 0.2
SMILES: CC(O)(C(N)=O)c1ccc(OS(=O)(=O)C(F)(F)F)cc1 (centres unmarked)

SMILES: C[C@](F)(C(=O)NC[C@H]1CCCN1)c1ccc(OS(=O)(=O)C(F)(F)F)cc1 [Compound 19, 4-((1R)-1-fluoro-1-methyl-2-oxo-2-{[(2R)-pyrrolidin-2-ylmethyl]amino}ethyl)phenyl trifluoromethanesulfonate]
- inhibition at 0.01 µM [4]: 45 ± 4%

SMILES: CC(F)(C(=O)O)c1cccc(Nc2nc(C(F)(F)F)cs2)c1 (centres unmarked) [Compound 7]
- inhibition at 0.01 µM ([1]; Table 1): 60 ± 10%
- inhibition at 0.001 µM [5, 8]: 21 ± 6%

SMILES: C[C@](F)(C(N)=O)c1ccc(OS(=O)(=O)C(F)(F)F)cc1 [Compound 9, 4-[(1R)-2-amino-1-fluoro-1-methyl-2-oxoethyl)phenyl trifluoromethanesulfonate]
- inhibition at 0.01 µM ([1]; Table 1): 53 ± 9%

- Vd [2]: 0.55 L/kg
- clearance [2]: 3.67 mL/min/kg
- bioavailability [2]: 72%
- half-life [2]: 1.9 h
- fraction unbound at 20 min, 50 μg/mL [3]: 0.06
SMILES: C[C@@H](C(N)=O)c1ccc(OS(=O)(=O)C(F)(F)F)cc1

SMILES: C[C@H](NC(=O)[C@](C)(F)c1ccc(OS(=O)(=O)C(F)(F)F)cc1)C(=O)O [Compound 15, (2S)-2-{[(2R)-2-fluoro-2-(4-{[(trifluoromethyl)sulfonyl]oxy}phenyl)propanoyl]amino}propanoic acid]
- inhibition at 0.001 µM [5, 8]: 55 ± 8%

SMILES: CC(F)(C(N)=O)c1cccc(Nc2nc(C(F)(F)F)cs2)c1 (centres unmarked) [Compound 14, 2-fluoro-2-(3-{[4-(trifluoromethyl)-1,3-thiazol-2-yl]amino}phenyl)propanamide]
- inhibition at 0.01 µM ([1]; Table 2): 55 ± 7%
- inhibition at 0.01 µM [4]: 33 ± 5%
- inhibition at 0.001 µM ([5]; Table 2, read-out: CSCL8 (% inhibition at 10^−9 M)): 36 ± 12%

SMILES: CC(F)(C(=O)O)c1cccc(C(=O)c2ccccc2)c1 (centres unmarked) [Compound 6, 2-(3-benzoylphenyl)-2-fluoropropanoic acid]
- inhibition at 0.01 µM ([1]; Table 1): 42 ± 4%

SMILES: CC(C)NC(=O)C(C)(F)c1ccc(OS(=O)(=O)C(F)(F)F)cc1 (centres unmarked) [Compound 12, 4-[1-fluoro-2-(isopropylamino)-1-methyl-2-oxoethyl]phenyl trifluoromethanesulfonate]
- inhibition at 0.1 µM [1, 7]: 45 ± 8%

- melting point: 85 to 87 °C
SMILES: CC(F)(C(N)=O)c1ccc(OS(=O)(=O)C(F)(F)F)cc1 (centres unmarked) (as salt: methanesulfonate) [Compound 8, 4-(2-amino-1-fluoro-1-methyl-2-oxoethyl)phenyl trifluoromethanesulfonate]

SMILES: CN(O)C(=O)[C@@](C)(F)c1ccc(OS(=O)(=O)C(F)(F)F)cc1 [Compound 5, 4-[(1S)-1-fluoro-2-[hydroxyl(methyl)amino]-1-methyl-2-oxoethyl}phenyl trifluoromethane sulfonate]
- inhibition at 0.01 µM ([1]; Table 1): 40 ± 8%

- fraction unbound at 20 min, 50 μg/mL [6]: 0.08
- Vd [2]: 1.47 L/kg
- clearance [2]: 2.28 mL/min/kg
- bioavailability [2]: 84.2%
- half-life [2]: 9.1 h
SMILES: C[C@@](F)(C(N)=O)c1ccc(OS(=O)(=O)C(F)(F)F)cc1 [drawing 25]

- melting point: 90 to 94 °C
SMILES: C[C@](F)(C(=O)O)c1ccc(OS(=O)(=O)C(F)(F)F)cc1 [Compound 3, (2R)-2-fluoro-2-(4-{[(trifluoromethyl)sulfonyl]oxy}phenyl)propanoic acid]
- inhibition at 0.1 µM [1, 7]: 49 ± 6%

SMILES: CONC(=O)C(C)(F)c1ccc(OS(=O)(=O)C(F)(F)F)cc1 (centres unmarked) [Compound 11, 4-[1-fluoro-2-(methoxyamino)-1-methyl-2-oxoethyl]phenyl trifluoromethanesulfonate]
- inhibition at 0.01 µM ([1]; Table 1): 7 ± 8%
- inhibition at 0.1 µM ([5]; values marked *: 10^−7 M, Table 1, read-out: CXCL8 (% of inhibition at 10^−7 M)): 40 ± 10%

- fraction unbound at 20 min, 50 μg/mL [6]: 0.05
- Vd [2]: 0.631 L/kg
- clearance [2]: 0.53 mL/min/kg
- bioavailability [2]: 46.8%
- half-life [2]: 13.8 h
SMILES: C[C@](F)(C(N)=O)c1ccc(OS(=O)(=O)C(F)(F)F)cc1 [drawing 24]

SMILES: C[C@@](F)(C(N)=O)c1ccc(OS(=O)(=O)C(F)(F)F)cc1 [Compound 10, 4-[(1S)-2-amino-1-fluoro-1-methyl-2-oxoethyl)phenyl trifluoromethanesulfonate]
- inhibition at 0.01 µM ([1]; Table 1): 10 ± 12%
- inhibition at 0.001 µM [5, 8]: 50 ± 6%

SMILES: C[C@H](NC(=O)C(C)(F)c1cccc(Nc2nc(C(F)(F)F)cs2)c1)C(=O)O (stereo partly drawn) [Compound 16, (2S)-2-{[2-fluoro-2-(3-{[4-(trifluoromethyl)-1,3-thiazol-2-yl]amino}phenyl)propanoyl]amino}propanoic acid]
- inhibition at 0.001 µM [5, 8]: 50 ± 12%

- melting point: 91 to 94 °C
SMILES: C[C@@](F)(C(=O)O)c1ccc(OS(=O)(=O)C(F)(F)F)cc1 [Compound 2, (2S)-2-fluoro-2-(4-{[(trifluoromethyl)sulfonyl]oxy}phenyl)propanoic acid]
- inhibition at 0.1 µM [1, 7]: 43 ± 15%

SMILES: CC(F)(C(N)=O)c1ccc(OS(=O)(=O)C(F)(F)F)cc1 (centres unmarked) [Compound 8, 4-(2-amino-1-fluoro-1-methyl-2-oxoethyl)phenyl trifluoromethanesulfonate]
- inhibition at 0.01 µM ([1]; Table 1): 57 ± 12%
- inhibition at 0.001 µM [5, 8]: 50 ± 9%

SMILES: C[C@@](F)(C(=O)NCCCN1CCCC1)c1ccc(OS(=O)(=O)C(F)(F)F)cc1 [Compound 18]
- inhibition at 0.01 µM [4]: 53 ± 5%

SMILES: CC(F)(C(N)=O)c1cccc(C(=O)c2ccccc2)c1 (centres unmarked) [Compound 13, 2-(3-benzoylphenyl)-2-fluoropropanamide]
- inhibition at 0.1 µM ([1]; marked *, no footnote in Table 2 (Table 1: * = 10^−7 M), read-out: GRO-α (% inhibition), value marked *): 50 ± 12%
- inhibition at 0.01 µM [4]: 47 ± 9%
- inhibition at 0.1 µM ([5]; marked *, no footnote in Table 2 (Table 1: * = 10^−7 M), read-out: CSCL8 (% inhibition), value marked *): 52 ± 8%
